In patent US20250197406A1, “INDAZOLES AS HEMATOPOIETIC PROGENITOR KINASE 1 (HPK1) INHIBITORS AND METHODS FOR USING SAME” (1ST Biotherapeutics, Inc., priority 2022, published 2025):
pIC50: −log10 of the molar value. Counter-ions that a name gives are not always drawn.

Target: recombinant human HPK1 (Homo sapiens (Human), UniProt Q92918)
Assay: HPK1 kinase assay (Promega ADP-Glo kinase assay)
Format: biochemical
Details: In vitro activity against HPK1, 5 ng HPK1, MBP substrate, ATP 25 μM, 30° C. 40 minutes
How it was run: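 IC50 was derived from percent inhibition across a range of compound concentrations. Recombinant human HPK1 (5 ng) phosphorylated MBP for 40 min at 30 °C in Tris buffer pH 7.5 with 20 mM MgCl2, with ATP added as a 25 µM solution and 0.5% DMSO. ADP formed was read by ADP-Glo luminescence.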

recombinant human HPK1, sequence (Q92918 whole entry): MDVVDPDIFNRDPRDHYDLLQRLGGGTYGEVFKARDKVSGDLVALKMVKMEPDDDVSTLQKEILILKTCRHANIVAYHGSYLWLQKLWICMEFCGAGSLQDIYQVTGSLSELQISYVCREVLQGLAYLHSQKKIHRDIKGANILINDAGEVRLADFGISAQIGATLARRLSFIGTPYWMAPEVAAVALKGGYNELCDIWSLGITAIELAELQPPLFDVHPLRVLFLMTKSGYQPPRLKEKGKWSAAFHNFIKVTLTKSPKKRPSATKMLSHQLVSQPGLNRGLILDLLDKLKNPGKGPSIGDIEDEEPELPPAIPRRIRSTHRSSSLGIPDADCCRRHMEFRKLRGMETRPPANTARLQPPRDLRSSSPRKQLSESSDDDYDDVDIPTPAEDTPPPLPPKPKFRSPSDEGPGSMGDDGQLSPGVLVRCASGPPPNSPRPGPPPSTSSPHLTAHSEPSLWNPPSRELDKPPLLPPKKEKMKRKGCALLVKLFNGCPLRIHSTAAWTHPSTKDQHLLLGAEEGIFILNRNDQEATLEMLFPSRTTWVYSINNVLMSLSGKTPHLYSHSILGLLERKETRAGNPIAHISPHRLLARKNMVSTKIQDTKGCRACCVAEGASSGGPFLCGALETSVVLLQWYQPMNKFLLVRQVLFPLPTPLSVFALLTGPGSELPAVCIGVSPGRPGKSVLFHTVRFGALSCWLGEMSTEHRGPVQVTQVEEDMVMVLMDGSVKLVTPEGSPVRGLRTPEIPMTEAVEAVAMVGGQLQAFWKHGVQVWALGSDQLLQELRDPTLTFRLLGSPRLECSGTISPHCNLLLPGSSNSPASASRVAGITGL

## CC(C)Nc1c(F)c(Cl)c(-c2cn3cc(NC(=O)[C@@H]4C[C@@H]4C(N)=O)nc3cn2)c2cn[nH]c12 [Example 39, (1R,2S)-N1-(6-(5-chloro-6-fluoro-7-(isopropylamino)-1H-indazol-4-yl)imidazo[1,2-a]pyrazin-2-yl)cyclopropane-1,2-dicarboxamide]
  pIC50: > 7.00

## COc1c(F)c(C(O)C2CC2)c2[nH]ncc2c1-c1cn2cc(NC(=O)[C@@H]3C[C@@H]3F)nc2cn1 (stereo partly drawn) [Example 127, (1S,2S)-N-(6-(7-(cyclopropyl(hydroxy)methyl)-6-fluoro-5-methoxy-1H-indazol-4-yl)imidazo[1,2-a]pyrazin-2-yl)-2-fluorocyclopropane-1-carboxamide]
  pIC50: > 7.00

## CC(C)Nc1c(F)c(Cl)c(-c2cn3cc(NC=O)nc3cn2)c2cn[nH]c12 [Example 112, N-(6-(5-chloro-6-fluoro-7-(isopropylamino)-1H-indazol-4-yl)imidazo[1,2-a]pyrazin-2-yl)formamide]
  pIC50: > 7.00

## CC(C)Nc1c(F)c(C(F)F)c(-c2cn3cc(NC(=O)[C@@H]4C[C@@H]4F)nc3cn2)c2cn[nH]c12 [Example 28, (1S,2S)-N-(6-(5-(difluoromethyl)-6-fluoro-7-(isopropylamino)-1H-indazol-4-yl)imidazo[1,2-a]pyrazin-2-yl)-2-fluorocyclopropane-1-carboxamide]
  pIC50: > 7.00

## CC(C)Nc1c(F)c(Cl)c(-c2cn3cc(NC(=O)[C@@H]4C[C@@H]4C(=O)O)nc3cn2)c2cn[nH]c12 [Example 20, (1S,2R)-2-((6-(5-chloro-6-fluoro-7-(isopropylamino)-1H-indazol-4-yl)imidazo[1,2-a]pyrazin-2-yl)carbamoyl)cyclopropane-1-carboxylic acid]
  pIC50: > 7.00

## CC(C)Nc1c(F)c(C(F)(F)F)c(-c2cn3cc(NC(=O)[C@@H]4C[C@@H]4CO)nc3cn2)c2cn[nH]c12 [Example 104, (1R,2S)-N-(6-(6-fluoro-7-(isopropylamino)-5-(trifluoromethyl)-1H-indazol-4-yl)imidazo[1,2-a]pyrazin-2-yl)-2-(hydroxymethyl)cyclopropane-1-carboxamide]
  pIC50: > 7.00

## CC(C)Nc1c(F)c(Cl)c(-c2cn3cc(NC(=O)OC4CCC4)nc3cn2)c2cn[nH]c12 [Example 126, cyclobutyl (6-(5-chloro-6-fluoro-7-(isopropylamino)-1H-indazol-4-yl)imidazo[1,2-a]pyrazin-2-yl)carbamate formate]
  pIC50: > 7.00

## CC(C)Nc1c(F)c(Cl)c(-c2cn3cc(N4CCOCC4)nc3cn2)c2cn[nH]c12 [Example 91, 5-chloro-6-fluoro-N-isopropyl-4-(2-morpholinoimidazo[1,2-a]pyrazin-6-yl)-1H-indazol-7-amine]
  pIC50: 6.00 to 6.30

## Cc1c(F)c(C2CCCC2O)c2[nH]ncc2c1-c1cn2cc(NC(=O)[C@@H]3C[C@@H]3F)nc2cn1 (stereo partly drawn) [Example 9, (1S,2S)-2-fluoro-N-(6-(6-fluoro-7-(2-hydroxycyclopentyl)-5-methyl-1H-indazol-4-yl)imidazo[1,2-a]pyrazin-2-yl)cyclopropane-1-carboxamide]
  pIC50: > 7.00

## CC(C)Nc1c(F)c(CO)c(-c2cn3cc(NC(=O)[C@@H]4C[C@@H]4F)nc3cn2)c2cn[nH]c12 [Example 40, (1S,2S)-2-fluoro-N-(6-(6-fluoro-5-(hydroxymethyl)-7-(isopropylamino)-1H-indazol-4-yl)imidazo[1,2-a]pyrazin-2-yl)cyclopropane-1-carboxamide]
  pIC50: 6.30 to 7.00

## CC(C)Nc1c(F)c(Cl)c(-c2cn3cc(NC(=O)Cc4cccnc4)nc3cn2)c2cn[nH]c12 [Example 89, N-(6-(5-chloro-6-fluoro-7-(isopropylamino)-1H-indazol-4-yl)imidazo[1,2-a]pyrazin-2-yl)-2-(pyridin-3-yl)acetamide]
  pIC50: > 7.00

## CNC(C)c1c(F)c(C)c(-c2cn3cc(NC(=O)[C@@H]4C[C@@H]4F)nc3cn2)c2cn[nH]c12 (stereo partly drawn) [Example 10, (1S,2S)-2-fluoro-N-(6-(6-fluoro-5-methyl-7-(1-(methylamino)ethyl)-1H-indazol-4-yl)imidazo[1,2-a]pyrazin-2-yl)cyclopropane-1-carboxamide]
  pIC50: 6.30 to 7.00

## CCC(=O)N1CC(Oc2c(F)c(Cl)c(-c3cn4cc(NC(C)=O)nc4cn3)c3cn[nH]c23)C1 [Example 149, N-(6-(5-chloro-6-fluoro-7-((1-propionylazetidin-3-yl)oxy)-1H-indazol-4-yl)imidazo[1,2-a]pyrazin-2-yl)acetamide]
  pIC50: 6.00 to 6.30
